One data set is described as follows: MTS cytotoxicity assay. The conditions noted are these: human. An excerpt: The study utilized human cell lines including PC-3 (human prostate adenocarcinoma), HSF (primary human skin fibroblasts), MDA-MB-231 (estrogen-negative breast adenocarcinoma), MCF-7 (estrogen-positive breast adenocarcinoma), MSC (multipotent stem cells derived from adipose tissue), SF-539 (brain gliosarcoma), SNB-19 (glioblastoma), A-498 (kidney carcinoma), M-14 (human melanoma), NCI-H322-M (primary bronchioalveolar carcinoma), HCT-15 (colon adenocarcinoma), and HCT-116 (colorectal intestinal carcinoma). We also used immortalized C2C12 mouse myoblasts (ATCC—CRL-1772). Cancer cell lines were obtained from the ATCC collection and generously provided by the Fox Chase Cancer Center (Philadelphia, USA). Conditionally normal cells, including skin fibroblasts and multipotent stem cells, were isolated by our group from postoperative materials (skin and subcutaneous fat) obtained from a conditionally healthy donor. Reagents and consumables for cell culture work were purchased from PanEco (Russia).
The cytotoxicity of the compounds under study was assessed using MTS assay on cell cultures. Cells were seeded into 96-well plates at a concentration of 10,000–20,000 cells/mL. […] After 2 h of incubation, the resulting water-soluble formazan was measured using the TECAN Infinite M200 Pro microplate reader at wavelengths of 555/750 nm. […]
For orientation: Formazan colour is commonly taken as a measure of viable cells.

The next data set in a line: Colony formation assay. It counts as cell-based, mouse. The conditions noted are these: mouse, C2C12 cells, 100 μM, read-out: C2C12 cells remaining viable. The protocol: (§1) Cells were cultured in a 24-well plate with 1 mL of DMEM nutrient medium for 24 h. […] The experiment was conducted in triplicate and in two or three independent repetitions. Only solvent was added to the control wells instead of the test compounds. Incubation with the drugs continued for three days, after which the grown colonies were washed with cold PBS solution and fixed in a fixing buffer (10% acetic acid, 10% methanol in distilled water) for 15 min. The colonies were stained with a 0.4% solution of crystal violet in 20% ethanol for 30 min and then washed 3 times with dH2O and analyzed under a microscope. The colonies were then dissolved in 10% acetic acid for 40 min on a shaker, and the absorbance of the lysate was read at 590 nm. Results were expressed as a percentage relative to the control, and a dose–response curve was plotted to determine the IC50 value.

The test system of the next data set is C2C12. Nature of the data set: Colony formation assay. The conditions noted are these: Mus musculus, C2C12, 72 h, incubation three days, read-out: Inhibitory concentration IC50, C2C12. It counts as cell-based, mouse. The procedure: as §1
The next data set concerns HCT-116. Nature of the data set: Proliferation by impedance biosensor (RTCA DP Analyzer). It is filed as cell-based. The conditions noted are these: Homo sapiens, HCT-116, 72 h, incubation three days, read-out: IC50 inhibitory concentration, HCT-116. The protocol:
(§2) The effect of the test compounds on the proliferation of multiple cell lines was assessed in real time using the RTCA DP Analyzer (Roche, Basel, Switzerland). For this purpose, we used specialized E-plates containing wells similar in size to a standard 96-well plate, but their bottoms were covered with microelectrodes to assess impedance. When cells adhere to the microelectrodes, the impedance of the well changes, which allows us to calculate the cell index proportional to the cell number. In the experiment, cells were seeded in the E-plate at densities of 20,000 cells per milliliter (180 μL/well). At 24 h post-cell attachment, 20 μL of compounds at various test concentrations or solvent as a control were introduced, and cells were then cultured with real-time impedance registration for 5 days.

Another data set relates to HSF. Described as above. It is filed as cell-based. The conditions noted are these: Homo sapiens, 72 h, incubation three days, read-out: IC50 inhibitory concentration, HSF. The procedure:
as §2

The test system of the next data set is MDA-MB-231. The description is as above. It is filed as cell-based. The conditions noted are these: Homo sapiens, MDA-MB-231, 72 h, incubation three days, read-out: IC50 inhibitory concentration, MDA-MB-231. The protocol:
as §2

The subject of another data set is PC-3. Described as above. It is filed as cell-based. The conditions noted are these: Homo sapiens, PC-3, 72 h, incubation three days, read-out: IC50 inhibitory concentration, PC-3. The procedure: as §2
The subject of the next data set is SF-539. The data set is described as above. The conditions noted are these: Homo sapiens, SF-539, 72 h, incubation three days, read-out: IC50 inhibitory concentration, SF-539. It is filed as cell-based. The protocol:
as §2

The test system of another data set is MCF-7 cells. Nature of the data set: Apoptosis induction, Annexin V-FITC/DAPI flow cytometry. It is filed as cell-based, human. The procedure:
MCF-7 cells were seeded at a concentration of 15,000 cells/mL in a 6-well plate. Then, 24 h later the cells were treated with different concentrations of DOX-2 for 72 h. The nutrient medium over cells containing the floating cells was collected into tubes, and then the adherent cells were trypsinized and added to the fraction of floating cells. Then, cells were washed, placed in a binding buffer, stained with Annexin V-FITC/DAPI, and analyzed using the flow cytofluorimeter BD FACSCalibur™ (BD Biosciences, Franklin Lakes, NJ, USA). A total of 1% Triton X-100 was used as a control apoptosis inducer.

The test system of a further data set is MCF-7. Nature of the data set: Mitochondrial membrane potential, rhodamine 123 flow cytometry. It counts as cell-based, human. The conditions noted are these: MCF-7, 72 h, concentration corresponding to IC60. The protocol: Cells were seeded in a 12-well plate at a density of 1 × 10^5 cells/well and incubated for 24 h at 37 °C in a humid atmosphere with 5% CO2 prior to treatment. Cells were bathed in complete DMEM media containing the respective compounds, using a solvent (dH2O/DMSO) as a negative control. After 72 h, the nutrient medium over cells containing the floating cells was collected into tubes, and then the adherent cells were trypsinized and added to the fraction of floating cells. Cell suspensions were then centrifuged, and the pellet was suspended in phosphate-buffered saline (PBS) to a final density of 5 × 10^5 cells/mL. Cell suspension in a volume of 250 μL and 500 nM rhodamine 123 were added to a rounded-well plate, followed by incubation for 30 min at 25° C. Measurements were conducted using flow cytometry on the Millipore Guava EasyCyte HT Flow Cytometer System in a green fluorescent channel.
(In general: Flow cytometry measures light scatter and fluorescence of single cells or particles in a stream.)

Data set [1] in a line: MTS cytotoxicity assay, statements over the cell panel. It counts as cell-based. The conditions noted are these: human, tumor and conditionally normal cells; MTS dose–response curves, high concentrations; read-out: Viable cells remaining.
Protocol: The cytotoxicity of the compounds under study was assessed using MTS assay on cell cultures. Cells were seeded into 96-well plates at a concentration of 10,000–20,000 cells/mL. After 24 h, gradient concentrations of the compounds were added to the culture medium and the plates were incubated for 72 h. Subsequently, the culture medium was replaced with MTS reagents (Sigma-Aldrich, Burlington, MA, USA) (MTS:PMS (0.18:0.0092 mg/mL)) and dissolved in phenol-free RPMI 1640 medium. After 2 h of incubation, the resulting water-soluble formazan was measured using the TECAN Infinite M200 Pro microplate reader at wavelengths of 555/750 nm. As a control, equivalent volumes of the solvents in which each compound was dissolved (dH2O/DMSO) were used. To calculate the percentage of viable cells relative to the control, which was considered 100%, dose-response curves were plotted against the logarithm of the compound concentration. The concentration of the compound at which cell growth is inhibited by 50% relative to the control was taken as the inhibitory concentration IC50 and calculated using Origin Pro software 8.0.1. The study was conducted in triplicates and in three independent repetitions.

With `COc1cccc2c1C(=O)c1c(O)c3c(c(O)c1C2=O)C[C@@](O)(C(=O)CO)C[C@@H]3O[C@H]1C[C@H](N)[C@H](O)[C@H](C)O1` [DOX, Doxorubicin, reference compound], the IC50 at 72 h in “MTS cytotoxicity assay” (MSC multipotent stem cells derived from adipose tissue) was found to be 1.1 ± 0.65 µM.
Molecule `COc1cccc2c1C(=O)c1c(O)c3c(c(O)c1C2=O)CC(O)(C(=O)CO)CC3OC1CC(NC(=O)/C=C/c2cnc(C)c3c2COC(C)(C)O3)C(O)C(C)O1` (stereo not shown) [DOX-2, (E)-N-(3-hydroxy-2-methyl-6-((3,5,12-trihydroxy-3-(2-hydroxyacetyl)-10-methoxy-6,11-dioxo-1,2,3,4,6,11-hexahydrotetracen-1-yl)oxy)tetrahydro-2H-pyran-4-yl)-3-(2,2,8-trimethyl-4H-[1,3]dioxino[4,5-c]pyridin-5-yl)acrylamide] showed an IC50 at 72 h in the data set “MTS cytotoxicity assay” greater than 200 µM. Further, in the data set “Colony formation assay”, the viability at 3 days, 100 µM came out at 30%. Also, the IC50 is 0.81 ± 0.07 µM with C2C12; 1.67 ± 0.02 µM in the data set with HCT-116; roughly 100 µM in the data set with HSF; 47.6 ± 26.1 µM in the data set with MDA-MB-231; 40.3 ± 13.5 µM with PC-3; 11.6 ± 8.55 µM with SF-539. Also, the “Percentage of cells in early and late apoptosis” value in the data set on MCF-7 cells (MCF-7, 72 h, IC20–IC60 concentrations) was “up to 25%”. For the same molecule, the “Accumulation of necrotic cells (in words)” value with MCF-7 cells (MCF-7, concentration corresponding to IC60) is listed as “no accumulation of necrotic cells”. The “Cells with reduced mitochondrial potential” value in the data set with MCF-7 is reported as “up to 27%”. The viability at 72 h in data set [1] was in the range of 20 to 40%.

(Values after article PMC10970924 (Life, 2024).)
